Publication PMC4772728 (Drug development and industrial pharmacy, 2013)
In brackets after ≈: the same amount, converted by molar mass. Several values for one entry are separate records, joined by “and”; a condition that tells them apart may be missing. Equal values may be shown once. Marks after values point to notes of the source that are not given here.

Legend:
[1] = Octanol/water partition coefficient determination; format: physicochemical
[2] = Stratum corneum/water partition coefficient determination; format: physicochemical, human
[3] = fresh rat plasma, 37 °C
[4] = pH 7.4
[5] = Solubility determination; format: physicochemical; settings: for solubility: thermodynamic from solid
[6] = PBS pH 7.4 with 30% DMSO, 37 °C, pseudo first order
[7] = cited from earlier work
[8] = stratum corneum / 5% propylene glycol in water, 24 hrs

Row | Compound | Partition coefficient (LogP octanol/water) [1] | Partition coefficient (LogK SC/ 5% PG water) [2, 8] | Bioconversion in plasma (half life in min) [3] | Aqueous solution flux (steady state, across HEM) [4] | Solubility in 5% PG water [5] | Solubility in Hexane [5] | Solubility in IPM [5] | Solubility in water [5] | Hydrolysis in PBS (half life in hours) [6] | logP at 24 h ([1]; octanol/0.02 M phosphate buffer pH 2.5, pH 2.5) | Partition coefficient (LogK SC/ 5% PG water) ([2]; water substituted with 0.02 M phosphate buffer at pH 2.5, 24 hrs) | solubility ([5]; organic solvent or mixture, Solubility in IPM) | solubility ([5]; pH 2.5, aqueous buffer, Solubility in water) | Decrease of solubility in water relative to unionized DA ([5]; pH 2.5) | Increase of solubility in purified water relative to unionized DA ([5]; pH 2.5) | octanol/water partition coefficient ([7]; ref Drug Bank website) | LogPO/W [7]
1 | Glycerol Diclofenac Ester [GD] | 3.30 |  |  | 5.54(0.78) nmol·cm^−2·hr^−1 | 662 µM | 386 µM | 69700 µM | 551 µM |  |  |  |  |  |  | > 100 fold |  | 
2 | O=C(c1ccccc1)c1ccc2n1CCC2C(=O)O (stereo not drawn) [ketorolac] |  |  |  |  |  |  |  |  |  |  |  |  |  |  |  |  | around 1

Second part, led by results:

Row | Partition coefficient (LogP octanol/water) [1] | Partition coefficient (LogK SC/ 5% PG water) [2, 8] | Bioconversion in plasma (half life in min) [3] | Aqueous solution flux (steady state, across HEM) [4] | Solubility in 5% PG water [5] | Solubility in Hexane [5] | Solubility in IPM [5] | Solubility in water [5] | Hydrolysis in PBS (half life in hours) [6] | logP at 24 h ([1]; octanol/0.02 M phosphate buffer pH 2.5, pH 2.5) | Partition coefficient (LogK SC/ 5% PG water) ([2]; water substituted with 0.02 M phosphate buffer at pH 2.5, 24 hrs) | solubility ([5]; organic solvent or mixture, Solubility in IPM) | solubility ([5]; pH 2.5, aqueous buffer, Solubility in water) | Decrease of solubility in water relative to unionized DA ([5]; pH 2.5) | Increase of solubility in purified water relative to unionized DA ([5]; pH 2.5) | Compound | octanol/water partition coefficient ([7]; ref Drug Bank website) | LogPO/W [7]
3 | 4.08 | 2.58 | 2.4 min and 2.41 min | 0.84(0.25) nmol·cm^−2·hr^−1 | 4.8 µM (≈ 1.7 µg/mL) | 2220 µM (≈ 786 µg/mL) | 13600 µM (≈ 4820 µg/mL) | 3.3 µM (≈ 1.17 µg/mL) | 63.9 h |  |  |  |  |  |  | O=C(Cc1ccccc1Nc1c(Cl)cccc1Cl)OCCCO [PD, 1,3 Propylene Glycol Diclofenac Ester] |  | 
4 |  |  |  |  |  |  |  |  |  | 4.57 | 2.97^a | 12600 µM (≈ 3730 µg/mL) | 3.4 µM (≈ 1.01 µg/mL) |  |  | O=C(O)Cc1ccccc1Nc1c(Cl)cccc1Cl [DA, Diclofenac Acid, reference compound] | 4.9 | 
5 | 5.00 | 3.56 |  |  | 1.9 µM (≈ 0.589 µg/mL) | 21000 µM (≈ 6510 µg/mL) | 43000 µM (≈ 13300 µg/mL) | 1.9 µM (≈ 0.589 µg/mL) | 34.6 h |  |  |  |  | more than 2 folds |  | COC(=O)Cc1ccccc1Nc1c(Cl)cccc1Cl [MD, Methanol Diclofenac Ester] |  | 
